# Molecular target: T1, MAO-B (Rattus norvegicus, UniProt P19643)
# T1 construct: from tissue; host or cells: rat brain (membrane homogenates)
# T1 sequence (P19643 1-520): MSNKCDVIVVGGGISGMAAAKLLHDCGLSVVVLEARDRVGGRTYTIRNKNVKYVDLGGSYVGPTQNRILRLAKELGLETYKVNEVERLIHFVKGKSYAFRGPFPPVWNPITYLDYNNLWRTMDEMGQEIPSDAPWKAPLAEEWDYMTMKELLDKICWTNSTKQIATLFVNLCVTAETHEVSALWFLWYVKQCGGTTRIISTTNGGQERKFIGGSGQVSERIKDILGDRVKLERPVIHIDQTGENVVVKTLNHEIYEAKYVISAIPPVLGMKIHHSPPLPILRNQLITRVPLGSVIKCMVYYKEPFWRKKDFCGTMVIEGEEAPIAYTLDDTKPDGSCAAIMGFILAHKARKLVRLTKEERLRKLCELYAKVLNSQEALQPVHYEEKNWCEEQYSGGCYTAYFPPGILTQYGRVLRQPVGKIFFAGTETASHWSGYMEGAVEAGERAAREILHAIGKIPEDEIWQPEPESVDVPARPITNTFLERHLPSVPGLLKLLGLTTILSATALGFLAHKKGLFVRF
# Experiment: Radioligand competition binding assay with L-[^3H]Deprenyl on rat brain membrane homogenates
# Settings: homologous binding experiments, rat brain homogenates
# Method: The affinity of the synthesized derivatives towards MAO-B was determined in radioligand competition binding assays. […] Non-specific binding was determined in the presence of 10 μM of rasagiline. The reaction was terminated by rapid filtration using Whatman GF/B glass-fiber filters, pre-soaked in 0.3% polyethyleneimine, and a 48-channel harvester (Biomedical Research and Development Laboratories, Gaithersburg, MD, USA) followed by washing four times with ice-cold TRIS-HCl buffer. Filter-bound radioactivity was quantified by liquid scintillation counting. The results represent two single experiments, each performed in triplicate. […] The data were analyzed with GraphPad Prism, Version 4.1 (GraphPad Inc., La Jolla, CA, USA).
row,Compound,Bmax [pmol/mg protein]
1,L-[^3H]Deprenyl [reference compound],2.29 ± 2.08

# Same assay, conditions: read-out: IC50 (MAO-B binding affinity)
row,Compound,IC50 [µM]
1,"O=C(c1ccc(F)cc1)N1CCN(C/C=C/c2ccccc2)CC1 [Compound 8, (E)-(4-cinnamylpiperazin-1-yl)(4-fluorophenyl)methanone]",> 10
2,"Fc1cccc(N2CCN(CC=Cc3ccccc3)CC2)n1 [Compound 9, 1-Cinnamyl-4-(6-fluoropyridin-2-yl)piperazine]",> 10
3,"Fc1ccc(N2CCN(CC=Cc3ccccc3)CC2)cn1 [Compound 10, 1-Cinnamyl-4-(6-fluoropyridin-3-yl)piperazine]",> 10
4,"Fc1cc(N2CCN(CC=Cc3ccccc3)CC2)ccn1 [Compound 11, 1-Cinnamyl-4-(2-fluoropyridin-4-yl)piperazine]",> 10
5,"Fc1ncccc1N1CCN(CC=Cc2ccccc2)CC1 [Compound 12, 1-Cinnamyl-4-(2-fluoropyridin-3-yl)piperazine]",> 10
6,"O=C(c1ccc(F)cc1)N1CCN(C/C=C/c2ccccc2F)CC1 [Compound 13, (E)-(4-Fluorophenyl)(4-(3-(2-fluorophenyl)allyl)piperazin-1-yl)methanone]",> 10
7,"Fc1cccc(N2CCN(C/C=C/c3ccccc3F)CC2)n1 [Compound 14, (E)-1-(3-(2-Fluorophenyl)allyl)-4-(6-fluoropyridin-2-yl)piperazine]",> 10
8,"Fc1ccc(N2CCN(C/C=C/c3ccccc3F)CC2)cn1 [Compound 15, (E)-1-(3-(2-Fluorophenyl)allyl)-4-(6-fluoropyridin-3-yl)piperazine]",> 10
9,"Fc1cc(N2CCN(C/C=C/c3ccccc3F)CC2)ccn1 [Compound 16, (E)-1-(3-(2-Fluorophenyl)allyl)-4-(2-fluoropyridin-4-yl)piperazine]",> 10
10,"Fc1ccccc1/C=C/CN1CCN(c2cccnc2F)CC1 [Compound 17, (E)-1-(3-(2-Fluorophenyl)allyl)-4-(2-fluoropyridin-3-yl)piperazine]",> 10

# Tested on: recombinant human MAO-B
# Experiment: not given
# Parameters: method as in earlier work
# Settings: cited from earlier work
row,Compound,IC50 [µM]
1,L-[^18F]Deprenyl,0.227 ± 0.0368

# Tested on: MAO-B
# Experiment: not given
# Parameters: method as in PMID 31060887
# Settings: cited from earlier work
row,Compound,IC50 [µM]
1,COC[C@@H]1CN(c2noc3cc(OCCCCC[18F])ccc23)C(=O)O1 [[^18F]6],0.11

# — publication PMC7663645 (Molecules, 2020)
